Assay results taken from US7273716B2 (priority 2003, dated 2007).
pIC50: −log10 of the molar value.

Columns and labels:
[1] = target: T1, GS-7340 ester hydrolase (Homo sapiens, UniProt P10619); assay: biochemical
T1 construct: Fresh human PBMCs are obtained from patients undergoing leukophoresis; from tissue; host or cells: human peripheral blood mononuclear cells (PBMC extract, purified by Q15, Butyl Sepharose HIC and Con A chromatography)
T1 sequence (P10619 29-326 limits assumed): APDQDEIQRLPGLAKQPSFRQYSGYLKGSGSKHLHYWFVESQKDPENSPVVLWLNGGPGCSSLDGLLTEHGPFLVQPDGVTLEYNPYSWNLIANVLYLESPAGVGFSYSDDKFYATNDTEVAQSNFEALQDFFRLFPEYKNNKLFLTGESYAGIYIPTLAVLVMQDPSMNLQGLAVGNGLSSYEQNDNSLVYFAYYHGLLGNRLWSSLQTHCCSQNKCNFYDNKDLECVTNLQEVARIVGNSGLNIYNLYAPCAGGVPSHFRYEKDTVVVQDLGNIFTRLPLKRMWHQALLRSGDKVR
T1 sequence (P10619 327-480 limits assumed): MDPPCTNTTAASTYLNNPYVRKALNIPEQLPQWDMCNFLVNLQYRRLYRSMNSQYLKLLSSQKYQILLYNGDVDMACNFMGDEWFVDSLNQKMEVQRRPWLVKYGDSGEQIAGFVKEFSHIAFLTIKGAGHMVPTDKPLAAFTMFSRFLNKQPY

[2] = test system: Cat A+ and Cat A- human primary fibroblasts; assay: Metabolism of acyclic nucleotide phosphonate prodrugs in Cat A+/- fibroblasts; conditions: 10 μM 14C-labeled Compound K, 37° C., 15-240 min

| SMILES | pIC50 [1] | concentration of metabolites in Cat A+ control fibroblasts relative to Cat A- (galactosialidosis) fibroblasts [2] |
| --- | --- | --- |
| O=c1oc(Cl)c(Cl)c2ccccc12 [3,4-dichloroisocoumarin, 3,4 dichloroisocoumarin] | 6.30 |  |
| C=C(OC(C)C)[C@H](C)N[P@](=O)(CO[C@H](C)Cn1cnc2c(C)ncnc21)Oc1ccccc1 [Compound K] |  | 6-9 times |
